These results are taken from patent US11266675B2, “Methods of treatment of viral infection and uses of anti-HSC70 inhibitors” (priority 2018, dated 2022).

Data set [1] deals with EV-A71. As to the kind of experiment: Extracellular viral RNA / virus yield in supernatant by qRT-PCR. Format: cell-based, Enterovirus A71 (SHZH98 strain). The note with it: RD cells; for Virus yield in the supernatants vs scrambled control: siRNA 48 hours, EV-A71 MOI of 10, nine hours p.i. The method, then:
(§1) Total RNA was extracted from cell lysis using TRIzol reagent (Ambion, Life Technologies). Quantitative Real-time PCR (qRT-PCR) was performed using SYBR Green Mix (Life Technologies) on applied Biosystems StepOne real-time PCR system. The comparative ΔΔCt method was used to calculate the relative expression of microRNA or mRNA normalized to β-actin mRNA.
(§2) The mRNA level of Hsc70 was detected by qRT-PCR and the protein level was detected by western blotting. […] The extracellular virus levels were detected by qRT-PCR. […] The viral titer in the supernatant was determined by TCID50 assay.
To address the drug target potential of Hsc70 against EV-A71, experiments were conducted to examine if Ver-155008, a chemical inhibitor of Hsc70, could protect cells from EV-A71 infection. In this regard, RD cells were pre-treated for 2 hours with Ver-155008, then infected the cells with EV-A71 for another 9 hours at an MOI of 10.
In FIG. 5A, cell images under light microscope. In FIG. 5B, proteins levels of VP0/2 by western blot are shown. In FIG. 5C, EV-A71 IRES activity detected by luciferase activities are shown. (n=3; ***, p<0.001). In FIG. 5D, there is shown the extracellular viral RNA levels were examined by qRT-PCR.

Data set [2] relates to EV-A71. As to the kind of experiment: Viral titer in supernatant by TCID50 assay. It counts as cell-based, Enterovirus A71 (SHZH98 strain). The note with it: RD cells, siRNA 48 hours, EV-A71 9 hours, culture media. The method, then:
(§3) Human rhabdomyosarcoma (RD) cells were purchased from ATCC (CCL-136). The Dulbecco's modified Eagle's medium (DMEM) with 10% fetal bovine serum (FBS) were used for cell culture, supplemented with 100 U/ml penicillin and 100 μg/ml streptomycin Propagation of EV-A71 (SHZH98 strain, accession number AF302996) was the same as previous report. The viral titer was measured by TCID50 assays.
as §2

The test system of data set [3] is EV-A71. As to the kind of experiment: Intracellular viral RNA (positive and negative strand) by qRT-PCR. Format: cell-based, Enterovirus A71 (SHZH98 strain). The note with it: RD cells. The method, then:
as §1, §2

The test system of another data set is EV-A71 viral protein VP1. As to the kind of experiment: Western blot of viral protein in infected RD cells. It counts as cell-based, Enterovirus A71 (SHZH98 strain). The method, then:
(§4) Total protein was extracted from cell lysis in RIPA buffer with protease inhibitor and phosphatase Inhibitor (Roche). A total of 10-30 μg protein was loaded for SDS-PAGE and transferred onto PVDF membranes. Membranes were blocked with 5% non-fat milk in Tris-buffered saline buffer with 0.1% Tween-20 (TBST) for 1 hour at room temperature and incubated with primary antibodies overnight at 4° C. After washing with TBST three times, the membranes were incubated with the corresponding horseradish peroxidase (HRP)-conjugated secondary antibodies for 1 hour at room temperature. The Hsc70 protein level was detected using an Hsc70-specific antibody (sc-13132, Santa Cruz Biotechnology, USA). The band density was quantified using Quantity One software (Bio-Rad). GADPH served as loading control. The western blotting was carried out in three times for confirmation of results.
The mRNA level of Hsc70 was detected by qRT-PCR and the protein level was detected by western blotting. […] The extracellular virus levels were detected by qRT-PCR. […] The viral titer in the supernatant was determined by TCID50 assay. […]
(§5) In FIG. 5A, cell images under light microscope. […] In FIG. 5C, EV-A71 IRES activity detected by luciferase activities are shown. […]

For data set [4], the system named is EV-A71. As to the kind of experiment: 2Apro-regulated viral protein production in HEK 293T cells, western blot (VP0/2 antibody). It counts as cell-based, Enterovirus A71 (SHZH98 strain). The conditions noted are these: si-Hsc70 then 2Apro expression plasmid, EV-A71 MOI of 5 for 9 hours. The method, then: as §4
In FIG. 4A, HEK 293T cells were co-transfected with pHsc70, pIRES reporter plasmid and 2A^pro-expressing plasmid or empty vector for forty-eight hours, then the reporter activity was measured. In FIG. 4B, HEK 293T cell extract was incubated with the His-tagged 2A^pro, pulled down and then analyzed by western blotting. […] The cleavage products were assessed by immunoblotting. […] The viral protein production was detected by western blotting by using VP0/2 antibody (n=3).

Data set [5] deals with EV-A71. As to the kind of experiment: Cytopathic effect (CPE) assay. It counts as cell-based, Enterovirus A71 (SHZH98 strain). Here is the method: as §3
CPE assay was used to test the antiviral effect of Ver-155008. Ver-155008 was from Selleckchem (Cat. No. S7751). RD cells were seed in 96-well plate at 37° C. overnight, was then treated with indicated concentration of Ver-155008. […] CPE was monitored and recorded from time to time under a phase-contrast microscope. The concentration required to reduce the EV-A71-induced CPE by 50% (IC50) was determined by using the nonlinear regression analysis of SPSS 17.0. Data were shown as mean values with standard deviations from three independent assays. Selectivity index (SI) is calculated by the ratio of CC50 to IC50.

The next data set concerns EV-A71 IRES. As to the kind of experiment: Dual-luciferase IRES reporter assay. Format: cell-based. The conditions noted are these: Ver-155008 treatment.
Description: Human Hsc70 (Accession NM_006597) was purchased from Addgene (Cat. No. 19541). The EV-A71 report plasmid pIRES was constructed as previously described. In detail, the EV-A71 reportor plasmid pIRES was constructed as follows: Renilla Luciferase gene (RLuc) was inserted into pcDNA4/HisMax B between BamHI and EcoRV sites; EV-A71 IRES was amplified from EV-A71 virus strain (SHZH98). Firefly Luciferase gene (FLuc) was amplified by using primer which has overlap sequence with the C-terminal of EV-A71 IRES. Finally, the construct IRES-FLuc were then amplified by using overlap PCR, and inserted into the downstream of the Renilla Luciferase gene between EcoRV and XbarI sites. […]
HEK 293T cells were seeded into a 24-well plate and incubated at 37° C. overnight and then transfected with Hsc70 expression plasmid (pHsc70) or siRNA. […] The activity of RLuc and FLuc were assessed by bioluminometer using a dual-luciferase reporter assay (Promega) according to the manufacturer.
FIG. 3A is concerned with 293T cells were co-transfected with si-Hsc70 and IRES reporter plasmid for forty-eight hours. […] Proteins which interact with the RNAs were detected by immunoblotting with specific antibody. […]
as §5

The next data set concerns RD cells. As to the kind of experiment: Cell viability assay (MTT). It counts as cell-based, Human. The conditions noted are these: serial dilution of Ver-155008 for 24 hours. Here is the method:
RD cells were seeded in 96-well plates (5,000 cells/well) and treated with serial dilution of Ver-155008 for 24 hours for cell viability assay. Ten μL of MTT was added to cultured cells in 100 μl culture medium and incubated at 37° C. for 4 h. Subsequently 100 μl of Dimethyl Sulfoxide were added. The optical density was measured at a wavelength of 570 nm. The cell viability assay was carried out in triplicates by three independent experiments as previously described.

“5′-CCUAAAUUCGUAGCAAAUU-3′ (SEQ ID NO: 2) (other siRNA strand not cited, further chemistry not given here) [si-Hsc70-2, small interfering RNA targeting human Hsc70 (NM_006597), synthesized from Genepharma]”: in the data set on EV-A71 [1], the “Virus yield in the supernatants vs scrambled control” value is given as “obviously decreased”.
Regarding “5′-UAAUUCUAAGUACAUUGAGACCAGC-3′ (SEQ ID NO: 1) (other siRNA strand not cited, further chemistry not given here) [si-Hsc70-1, small interfering RNA targeting human Hsc70 (NM_006597), synthesized from Genepharma]”, in the data set with EV-A71 [2], the “Decrease of virus titer vs scramble siRNA control (TCID50)” value is “more than 10 times”. Besides, the “Decrease of negative strand viral RNA level” value in the data set with EV-A71 [3] (EV-A71 MOI of 10, 3 hours p.i.) was “about 86%”; in the data set on EV-A71 [3] (EV-A71 MOI of 10, 6 hours p.i.), “about 70%”; with EV-A71 [3] (EV-A71 MOI of 10, 9 hours p.i.) it was “about 70%”. Besides, the “Decrease of positive strand viral RNA level” value with EV-A71 [3] (EV-A71 MOI of 10, 3 hours p.i.) is given as “about 86%”; in the data set on EV-A71 [3] (EV-A71 MOI of 10, 6 hours p.i.), “about 70%”; in the data set with EV-A71 [3] (EV-A71 MOI of 10, 9 hours p.i.) it was “about 70%”. For the same compound, the “Inhibitory effect on viral RNA levels” value in the data set on EV-A71 [3] (EV-A71 MOI of 10, 12 hours p.i.) is reported as “still significant”. The “EV-A71 viral protein VP1 (western blot) vs control cells” value with EV-A71 viral protein VP1 (RD cells with Hsc70 knockdown, EV-A71 MOI of 10) is “significantly decreased”. The “2Apro-elicited production of viral protein after knockdown of Hsc70” value with EV-A71 [4] was “failed to elicit the production of viral protein”. Also, the “Virus yield in the supernatants vs scrambled control” value in the data set with EV-A71 [1] is given as “obviously decreased”.
With `N#Cc1ccc(COC[C@H]2O[C@@H](n3c(NCc4ccc(Cl)c(Cl)c4)nc4c(N)ncnc43)[C@H](O)[C@@H]2O)cc1` [Ver-155008], the IC50 with EV-A71 [5] (RD cells infected with EV-A71 at MOI of 0.01, read-out: Antiviral activity IC50 (concentration reducing EV-A71-induced CPE by 50%)) turned out to be 2.01 µM. Moreover, the “Cytopathic effect (CPE)” value in the data set with EV-A71 [5] (RD cells, 8 μM, 2 h pre-treatment, EV-A71 MOI of 10 for 9 hours) is reported as “nearly no obvious cytopathic effect”. Moreover, in the data set on EV-A71 [5] (RD cells, EV-A71), the “Selective Index SI (CC50/IC50)” value stood at 23.71. Moreover, the “Viral VP1 levels (western blot)” value in the data set on EV-A71 viral protein VP1 (RD cells pre-treated 2 hours with Ver-155008, EV-A71 MOI of 10, 9 hours) is “obviously repressed by Ver-155008 in a dose dependent manner”. Also, the “Decrease of secreted virions (extracellular viral RNA, qRT-PCR)” value in the data set with EV-A71 [1] (8 μM, EV-A71 MOI of 10, 9 hours) worked out at 55%. The “EV-A71 IRES activity (luciferase)” value in the data set with EV-A71 IRES is given as “declined in a dose-dependent manner”. The CC50 in the data set on RD cells (read-out: Cytotoxity CC50) was 47.7 µM. In the data set with RD cells (read-out: Cytotoxity CC90), the CC90 worked out at 91.9 ± 0.94 µM.
